Test results as given in publication PMC8012719 (Frontiers in Pharmacology, 2021).
In brackets after ≈: the same amount, converted by molar mass. Several values for one entry are separate records, joined by “and”; a condition that tells them apart may be missing. Identical values can stand only once. Counter-ions that a name gives are not always drawn. Like-named read-outs stand apart in the source and are kept apart here.

Experiments:
RABV CVS strain [1] = experiment: microbe, parasite or virus in culture; assay type: cell-based, rabies virus; conditions: for EC50: read-out: CVS EC50
Rabies virus CVS strain = conditions: mouse, in vivo
[2] = tested on: pVSV (pseudovirus expressing a vesicular stomatitis virus envelope glycoprotein); experiment: microbe, parasite or virus in culture; assay type: cell-based; conditions: for EC50: read-out: pVSV EC50
[3] = tested on: pRABV (pseudovirus enveloped by the RABV glycoprotein G); experiment: microbe, parasite or virus in culture; assay type: cell-based, rabies virus; conditions: for EC50: read-out: pRABV EC50
in vitro [4] = conditions: cat
in vitro [5] = conditions: human
in vitro [6] = conditions: hamster
RABV CVS strain [7] = assay type: cell-based, rabies virus
RABV [8] = experiment: microbe, parasite or virus in culture; assay type: cell-based; conditions: Lyssavirus rabies, in Felis catus
RABV [9] = target: RABV; design: species or system rabies virus; conditions: read-out: binding affinity (KD)
RABV [10] = conditions: cited from earlier work
rabies infection = conditions: mouse, in vivo; cited from earlier work
RABV vaccine strain = conditions: cited from earlier work

## CC(C)N=c1cc2n(-c3ccc(Cl)cc3)c3ccccc3nc-2cc1Nc1ccc(Cl)cc1 [CFZM, Clofazimine methanesulfonate]
RABV CVS strain [1]
  EC50: 2.5 µM
Rabies virus CVS strain
  survival rate compared with the control: no improvement on the survival rate

## CC(C)N=c1cc2n(-c3ccc(Cl)cc3)c3ccccc3nc-2cc1Nc1ccc(Cl)cc1 [CFZG, Clofazimine gallic acid salt]
RABV CVS strain [1]
  EC50: 2.07 µM
Rabies virus CVS strain
  percentage of sick mice at five dpi: 40%
  survival rate compared with the control: no improvement on the survival rate

## CCOC(=O)C1=C(COCCN)NC(C)=C(C(=O)OC)C1c1ccccc1Cl (stereo not drawn) [Amlodipine maleate]
RABV CVS strain [1]
  SICVS: 0.9
  EC50: 37.8 µM
293T cells
  CC50: 34.9 µM
[2]
  EC50pVSV/EC50pRABV: 13.3
  EC50: 25.8 µM
[3]
  SI pRABV: 17.9
  EC50: 1.9 µM

## CC(C)/N=c1\cc2n(-c3ccc(Cl)cc3)c3ccccc3nc-2cc1Nc1ccc(Cl)cc1 [Clofazimine]
In vitro [4]
  CC50: 144 µM
In vitro [5]
  CC50: > 200 µM
In vitro [6]
  CC50: > 2200 µM
RABV CVS strain [1]
  concentrations inhibiting RABV: 2 to 33 µM
  EC50: 2.28 µM
RABV CVS strain [1]; Lyssavirus rabies, 24 h
  EC50: 2.28 µM
physchem
  solubility: 0.29 µg/mL (≈ 0.613 µM)
RABV CVS strain [7]
  inhibitory effect on RABV infection: strong inhibitory effect
  suppression of fluorescence activity (RABV infection): no suppression of fluorescence activity
[2]; Pseudovirus, HEK-293T
  EC50: 10.5 µM
Rabies virus CVS strain
  antiviral efficacy (survival): did not show any antiviral efficacy
  percentage of sick mice at five dpi: 50%
  survival at 14 dpi: 30%
  survival rate at 14 dpi: 10%
[3]; Pseudovirus, HEK-293T, 48 h
  EC50: 1.7 µM
RABV [8]
  EC50: 4.24 µM
RABV [9]
  Kd: 4.32 µM

## CCOC(=O)C1=C(COCCN)NC(C)=C(C(=O)OC)C1c1ccccc1Cl (stereo not drawn) [Amlodipine besylate]
In vitro [5]
  CC50: 36.3 µM
RABV CVS strain [1]
  SICVS: 1.0
RABV CVS strain [1]; Lyssavirus rabies, 24 h
  EC50: 37.4 µM
[2]
  EC50pVSV/EC50pRABV: 19.4
[2]; Pseudovirus, HEK-293T
  EC50: 26.4 µM
[3]
  SI pRABV: 26.8
[3]; Pseudovirus, HEK-293T, 48 h
  EC50: 1.4 µM

## CC(C)N=c1cc2n(-c3ccc(Cl)cc3)c3ccccc3nc-2cc1Nc1ccc(Cl)cc1 [CFZA, Clofazimine aspirin salt]
RABV CVS strain [1]
  EC50: 1.2 µM
Rabies virus CVS strain
  survival rate at 14 dpi: 25%

## CNCCCC12CCC(c3ccccc31)c1ccccc12 [Maprotiline hydrochloride]
In vitro [5]
  CC50: 52 µM
RABV CVS strain [1]
  SICVS: >4.5

## CNC1(c2ccccc2Cl)CCCCC1=O (stereo not drawn) [Ketamine]
RABV [10]
  concentrations inhibiting RABV replication: 1 to 2 mM

## NC(=O)c1nc(F)cnc1O [T-705, 6-fluoro-3-hydroxy-2-pyrazinecarboxamide]
Rabies infection
  viral replication in the CNS: suppress viral replication in the CNS
RABV vaccine strain
  EC50: 32.4 µM
Rabies virus CVS strain; po, 300 mg/kg/day
  survival at 14 dpi: 40%

## N.N.[Cl][Pt][Cl] [Cisplatin]
RABV CVS strain [1]
  SICVS: >3.0
  EC50: 67 µM
293T cells
  CC50: > 200 µM
[2]
  EC50pVSV/EC50pRABV: >5.1
  EC50: > 200 µM
[3]
  SI pRABV: >5.1
  EC50: 39.1 µM

## CC(C)N=c1cc2n(-c3ccc(Cl)cc3)c3ccccc3nc-2cc1Nc1ccc(Cl)cc1 [CFZH, Clofazimine hydrochloride salt]
RABV CVS strain [1]
  EC50: 1.2 µM
Rabies virus CVS strain
  survival rate compared with the control: no improvement on the survival rate

## CCCCNc1ccc(C(=O)OCCN(C)C)cc1 [Tetracaine hydrochloride]
In vitro [5]
  CC50: > 200 µM
RABV CVS strain [1]
  SICVS: >3.0
RABV CVS strain [1]; Lyssavirus rabies, 24 h
  EC50: 67 µM
[2]
  EC50pVSV/EC50pRABV: >3
[2]; Pseudovirus, HEK-293T
  EC50: > 200 µM
[3]
  SI pRABV: >3
[3]; Pseudovirus, HEK-293T, 48 h
  EC50: 65.8 µM

## CCc1c2c(nc3ccc(OC(=O)N4CCC(N5CCCCC5)CC4)cc13)-c1cc3c(c(=O)n1C2)COC(=O)[C@]3(O)CC.Cl [Irinotecan hydrochloride]
RABV CVS strain [1]
  SICVS: 1.2
  EC50: 67 µM
293T cells
  CC50: > 200 µM
[2]
  EC50pVSV/EC50pRABV: >5.9
  EC50: > 200 µM
[3]
  SI pRABV: >5.9
  EC50: 33.6 µM

## CC(CN1c2ccccc2S(=O)(=O)c2ccccc21)N(C)C.Cl (stereo not drawn) [Dioxopromethazine hydrochloride]
RABV CVS strain [1]
  SICVS: >3.0
  EC50: 67 µM
293T cells
  CC50: > 200 µM
[2]
  EC50pVSV/EC50pRABV: >5.5
  EC50: > 200 µM
[3]
  SI pRABV: >5.5
  EC50: 36.7 µM

## CN1CCC(=C2c3ccccc3CC(=O)c3sccc32)CC1 [Ketotifen fumarate]
In vitro [5]
  CC50: > 200 µM
RABV CVS strain [1]
  SICVS: >3.0
RABV CVS strain [1]; Lyssavirus rabies, 24 h
  EC50: 67 µM
[2]
  EC50pVSV/EC50pRABV: 8.1
[2]; Pseudovirus, HEK-293T
  EC50: 87.8 µM
[3]
  SI pRABV: >18
[3]; Pseudovirus, HEK-293T, 48 h
  EC50: 10.8 µM

## CCN(CC)Cc1cc(Nc2ccnc3cc(Cl)ccc23)ccc1O [Amodiaquine hydrochloride]
In vitro [5]
  CC50: 84.9 µM
RABV CVS strain [1]
  SICVS: 5.7
RABV CVS strain [1]; Lyssavirus rabies, 24 h
  EC50: 14.8 µM
[2]
  EC50pVSV/EC50pRABV: 5.8
[2]; Pseudovirus, HEK-293T
  EC50: 24.3 µM
[3]
  SI pRABV: 20.3
[3]; Pseudovirus, HEK-293T, 48 h
  EC50: 4.2 µM

## CC(C)N=c1cc2n(-c3ccc(Cl)cc3)c3ccccc3nc-2cc1Nc1ccc(Cl)cc1 [CFZS, Clofazimine salicylates]
In vitro [4]
  CC50: 670 µM
RABV CVS strain [1]
  EC50: 1.2 µM
Rabies virus CVS strain
  percentage of sick mice at five dpi: 40%
  survival at 14 dpi: 50% and 40%
  survival rate at 14 dpi: 30%
Rabies virus CVS strain; po
  redness in the skin: No redness in the skin
RABV [8]
  EC50: 4.71 µM

## CN1CCC(=C2c3ccccc3CCc3sccc32)CC1 [Pizotifen]
In vitro [5]
  CC50: 100 µM
RABV CVS strain [1]
  SICVS: 1.5
RABV CVS strain [1]; Lyssavirus rabies, 24 h
  EC50: 67 µM
[2]
  EC50pVSV/EC50pRABV: 8.2
[2]; Pseudovirus, HEK-293T
  EC50: 25.7 µM
[3]
  SI pRABV: 32.3
[3]; Pseudovirus, HEK-293T, 48 h
  EC50: 3.1 µM
